Ki data for 17 compounds are collected here from US8450313B2, “2,3-diaryl- or heteroaryl-substituted 1,1,1-trifluoro-2-hydroxypropyl compounds” (Hoffmann-La Roche Inc., priority 2009, dated 2013).

pKi: −log10 of the molar value.

In the experiment the target is T1, full length human recombinant glucocorticoid receptor (Homo sapiens, UniProt P04150).
T1 construct: It contains some partially purified full length human recombinant glucocorticoid receptor; purchased Panvera/Invitrogen PV4302
T1 sequence (P04150 1-777): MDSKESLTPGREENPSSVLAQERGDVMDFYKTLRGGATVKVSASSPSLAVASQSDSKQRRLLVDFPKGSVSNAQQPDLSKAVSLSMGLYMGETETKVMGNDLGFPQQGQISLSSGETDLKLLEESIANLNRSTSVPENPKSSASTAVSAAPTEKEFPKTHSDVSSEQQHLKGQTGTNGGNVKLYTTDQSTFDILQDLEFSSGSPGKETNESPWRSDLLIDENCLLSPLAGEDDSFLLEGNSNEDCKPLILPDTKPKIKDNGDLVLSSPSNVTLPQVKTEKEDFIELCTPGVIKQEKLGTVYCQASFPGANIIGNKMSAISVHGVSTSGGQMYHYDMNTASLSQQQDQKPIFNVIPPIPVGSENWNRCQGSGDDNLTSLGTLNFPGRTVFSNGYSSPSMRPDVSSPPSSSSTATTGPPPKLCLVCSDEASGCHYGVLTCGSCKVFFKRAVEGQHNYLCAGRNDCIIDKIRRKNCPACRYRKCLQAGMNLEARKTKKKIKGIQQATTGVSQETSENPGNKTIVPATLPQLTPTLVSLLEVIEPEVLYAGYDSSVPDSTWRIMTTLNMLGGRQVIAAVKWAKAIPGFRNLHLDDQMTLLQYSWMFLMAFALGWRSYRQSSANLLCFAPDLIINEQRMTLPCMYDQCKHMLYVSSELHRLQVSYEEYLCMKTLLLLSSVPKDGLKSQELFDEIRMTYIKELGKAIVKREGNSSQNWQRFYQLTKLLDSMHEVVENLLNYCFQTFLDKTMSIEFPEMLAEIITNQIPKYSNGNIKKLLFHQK
Briefly: Glucocorticoid Receptor Binding Assay (Glucocorticoid Receptor Competitor Assay far red kit, fluorescence polarization). Particulars: competition with fluorescent GR ligand Fluormone GS Far Red, 3 hours at 22° C., pH 7.4; Ki calculated from IC50 by Cheng-Prusoff. The method, boiled down:
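Fluorescence polarization competition with partially purified full-length human recombinant GR, stabilizing peptide and Fluormone GS Far Red tracer in screening buffer pH 7.4; 3 hours at 22° C in the dark, read at 610–660 nm. IC50 from sigmoidal fit; Ki by Cheng-Prusoff.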

Take `C[C@@H](c1ccc(-c2cccc(C(=O)O)c2)cc1Cl)[C@](O)(c1ccc2c(c1)N(C)C(=O)CO2)C(F)(F)F` (stereo in doubt) [Example 23, 3′-Chloro-4′-[3,3,3-trifluoro-2-hydroxy-1-methyl-2-(4-methyl-3-oxo-3,4-dihydro-2H-benzo[1,4]oxazin-6-yl)-propyl]-biphenyl-3-carboxylic acid]: the negative-log Ki (pKi) (commonly −log10 of the Ki, conventionally taken in molar units) is 8.89.

With `C[C@@H](c1ccc(-c2ccc(C(=O)O)cc2F)cc1Cl)[C@](O)(c1ccc2c(c1)N(C)C(=O)CO2)C(F)(F)F` (stereo in doubt) [Example 34, 3′-Chloro-2-fluoro-4′-[3,3,3-trifluoro-2-hydroxy-1-methyl-2-(4-methyl-3-oxo-3,4-dihydro-2H-benzo[1,4]oxazin-6-yl)-propyl]-biphenyl-4-carboxylic acid], the pKi is 8.11.

Consider `C[C@@H](c1ccc(-c2ccc(Cl)c(C(=O)O)c2)cc1Cl)[C@](O)(c1ccc2c(c1)N(C)C(=O)CO2)C(F)(F)F` (stereo in doubt) [Example 40, 4,3′-Dichloro-4′-[3,3,3-trifluoro-2-hydroxy-1-methyl-2-(4-methyl-3-oxo-3,4-dihydro-2H-benzo[1,4]oxazin-6-yl)-propyl]-biphenyl-3-carboxylic acid], for which the negative-log Ki (pKi) is 8.82.

As to `CCOC(=O)C1CCN(c2ccc([C@H](C)[C@](O)(c3ccc4c(c3)N(C)C(=O)CO4)C(F)(F)F)c(Cl)c2)CC1` (stereo in doubt) [Example 42, 1-{3-Chloro-4-[3,3,3-trifluoro-2-hydroxy-1-methyl-2-(4-methyl-3-oxo-3,4-dihydro-2H-benzo[1,4]oxazin-6-yl)-propyl]-phenyl}-piperidine-4-carboxylic acid ethyl ester], the pKi is 8.40.

In the case of `C[C@@H](c1ccc(-c2ccc(F)c(OCC(=O)O)c2)cc1Cl)[C@](O)(c1cc(F)c2c(c1)N(C)C(=O)CO2)C(F)(F)F` (stereo in doubt) [Example 48, {3′-Chloro-4-fluoro-4′-[3,3,3-trifluoro-2-(8-fluoro-4-methyl-3-oxo-3,4-dihydro-2H-benzo[1,4]oxazin-6-yl)-2-hydroxy-1-methyl-propyl]-biphenyl-3-yloxy}-acetic acid], the pKi was 8.89.

`COC(=O)c1ccc(-c2ccc([C@H](C)[C@](O)(c3ccc(=O)n4ccccc34)C(F)(F)F)c(Cl)c2)cc1F` (stereo in doubt) [Example 49, 3′-Chloro-3-fluoro-4′-[3,3,3-trifluoro-2-hydroxy-1-methyl-2-(4-oxo-4H-quinolizin-1-yl)-propyl]-biphenyl-4-carboxylic acid methyl ester]: the negative logarithm of the Ki (pKi) was 7.80.

In the case of `C[C@@H](c1ccc(-c2ccc(C(=O)O)c(F)c2)cc1Cl)[C@](O)(c1ccc(=O)n2ccccc12)C(F)(F)F` (stereo in doubt) [Example 50, 3′-Chloro-3-fluoro-4′-[3,3,3-trifluoro-2-hydroxy-1-methyl-2-(4-oxo-4H-quinolizin-1-yl)-propyl]-biphenyl-4-carboxylic acid], the pKi is 7.31.

Turning to `COC(=O)c1ccc(-c2ccc([C@@H](C)[C@@](O)(c3cnc4c(c3)N(C)C(=O)CO4)C(F)(F)F)c(Cl)c2)cc1F` (stereo in doubt) [Example 51, 3′-Chloro-3-fluoro-4′-[3,3,3-trifluoro-2-hydroxy-1-methyl-2-(1-methyl-2-oxo-2,3-dihydro-1H-pyrido[2,3-b][1,4]oxazin-7-yl)-propyl]-biphenyl-4-carboxylic acid methyl ester], the pKi is 7.68.

As for `C[C@H](c1ccc(-c2ccc(C(=O)O)c(F)c2)cc1Cl)[C@@](O)(c1cnc2c(c1)N(C)C(=O)CO2)C(F)(F)F` (stereo in doubt) [Example 52, 3′-Chloro-3-fluoro-4′-[3,3,3-trifluoro-2-hydroxy-1-methyl-2-(1-methyl-2-oxo-2,3-dihydro-1H-pyrido[2,3-b][1,4]oxazin-7-yl)-propyl]-biphenyl-4-carboxylic acid], the pKi is 6.91.

Consider `C[C@H](c1ccc(-c2ccc(C(=O)O)c(F)c2)cc1Cl)[C@@](O)(c1cccc2c1OCC(=O)N2C)C(F)(F)F` (stereo in doubt) [Example 54, 3′-Chloro-3-fluoro-4′-[3,3,3-trifluoro-2-hydroxy-1-methyl-2-(4-methyl-3-oxo-3,4-dihydro-2H-benzo[1,4]oxazin-8-yl)-propyl]-biphenyl-4-carboxylic acid], for which the pKi is 6.55.

With `C=CCN1C(=O)COc2ccc([C@](O)([C@H](C)c3ccc(-c4ccc(C(=O)OC)c(F)c4)cc3Cl)C(F)(F)F)cc21` (stereo in doubt) [Example 70, 4′-[2-(4-Allyl-3-oxo-3,4-dihydro-2H-benzo[1,4]oxazin-6-yl)-3,3,3-trifluoro-2-hydroxy-1-methyl-propyl]-3′-chloro-3-fluoro-biphenyl-4-carboxylic acid methyl ester], the pKi was 6.56.

In the case of `C[C@H](c1ccc(-c2ccc(F)c(C(=O)O)c2)cc1Cl)[C@@](O)(c1ccc2c(c1)n(C)c(=O)n2C)C(F)(F)F` (stereo in doubt) [Example 74, 3′-Chloro-4′-[2-(1,3-dimethyl-2-oxo-2,3-dihydro-1H-benzoimidazol-5-yl)-3,3,3-trifluoro-2-hydroxy-1-methyl-propyl]-4-fluoro-biphenyl-3-carboxylic acid], the pKi was 8.77.

`C[C@H](c1ccc(-c2ccc(C(=O)O)c(Cl)c2)cc1Cl)[C@@](O)(c1ccc2c(c1)n(C)c(=O)n2C)C(F)(F)F` (stereo in doubt) [Example 76, 3,3′-Dichloro-4′-[2-(1,3-dimethyl-2-oxo-2,3-dihydro-1H-benzoimidazol-5-yl)-3,3,3-trifluoro-2-hydroxy-1-methyl-propyl]-biphenyl-4-carboxylic acid]: the negative-log Ki (pKi) is 9.00.

As for `C[C@H](c1ccc(-c2ccc(C(=O)O)cc2)cc1Cl)[C@@](O)(c1ccc2c(c1)n(C)c(=O)n2C)C(F)(F)F` (stereo in doubt) [Example 77, 3′-Chloro-4′-[2-(1,3-dimethyl-2-oxo-2,3-dihydro-1H-benzoimidazol-5-yl)-3,3,3-trifluoro-2-hydroxy-1-methyl-propyl]-biphenyl-4-carboxylic acid], the pKi is 8.62.

Consider `C[C@H](c1ccc(-c2cccc(C(=O)O)c2)cc1Cl)[C@@](O)(c1ccc2c(c1)n(C)c(=O)n2C)C(F)(F)F` (stereo in doubt) [Example 78, 3′-Chloro-4′-[2-(1,3-dimethyl-2-oxo-2,3-dihydro-1H-benzoimidazol-5-yl)-3,3,3-trifluoro-2-hydroxy-1-methyl-propyl]-biphenyl-3-carboxylic acid], for which the pKi was 8.89.

With `C[C@H](c1ccc(-c2ccc(Cl)c(C(=O)O)c2)cc1Cl)[C@@](O)(c1ccc2c(c1)n(C)c(=O)n2C)C(F)(F)F` (stereo in doubt) [Example 79, 4,3′-Dichloro-4′-[2-(1,3-dimethyl-2-oxo-2,3-dihydro-1H-benzoimidazol-5-yl)-3,3,3-trifluoro-2-hydroxy-1-methyl-propyl]-biphenyl-3-carboxylic acid], the pKi is 9.00.

Take `COc1cc(-c2ccc([C@@H](C)[C@@](O)(c3ccc4c(c3)n(C)c(=O)n4C)C(F)(F)F)c(Cl)c2)ccc1C(=O)O` (stereo in doubt) [Example 80, 3′-Chloro-4′-[2-(1,3-dimethyl-2-oxo-2,3-dihydro-1H-benzoimidazol-5-yl)-3,3,3-trifluoro-2-hydroxy-1-methyl-propyl]-3-methoxy-biphenyl-4-carboxylic acid]: the pKi was 7.87.
